Tests used:
M1 muscarinic receptor = target: T1, M1 muscarinic receptor (Homo sapiens, UniProt P11229); test: Functional mobilization of intracellular calcium (FLIPR) in M1-CHO cells; assay type: cell-based; details: M1 receptor, calcium mobilization; for Emax: read-out: M1 Efficacy
T1 construct: expressed in transfected cells; host or cells: CHO (M1-CHO)
T1 sequence (P11229 1-460): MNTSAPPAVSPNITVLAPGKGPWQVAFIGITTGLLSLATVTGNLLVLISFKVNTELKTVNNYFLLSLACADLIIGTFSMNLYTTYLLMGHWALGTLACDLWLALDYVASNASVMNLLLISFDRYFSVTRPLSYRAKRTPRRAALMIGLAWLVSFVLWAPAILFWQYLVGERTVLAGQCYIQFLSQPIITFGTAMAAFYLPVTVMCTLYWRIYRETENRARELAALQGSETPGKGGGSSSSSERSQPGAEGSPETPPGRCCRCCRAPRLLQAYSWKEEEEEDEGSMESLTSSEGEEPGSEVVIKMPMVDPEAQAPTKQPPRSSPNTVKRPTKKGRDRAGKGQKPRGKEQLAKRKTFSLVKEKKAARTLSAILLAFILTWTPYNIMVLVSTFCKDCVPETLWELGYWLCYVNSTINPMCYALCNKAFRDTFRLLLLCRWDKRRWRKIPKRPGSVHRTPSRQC
In short: (§1)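 Steps: seed M1- or M4-CHO cells 18-24 hrs ahead; load calcium dye with 1 mM probenecid; add test compound (0.5% DMSO final), either alone for agonism or 15 min before EC80 carbachol for inhibition; record FLIPR fluorescence for 60 sec.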

M4 muscarinic receptor = target: T2, M4 muscarinic receptor (Homo sapiens, UniProt P08173); test: Functional mobilization of intracellular calcium (FLIPR) in M4-CHO cells; assay type: cell-based; details: M4 receptor, calcium mobilization; for Emax: read-out: M4 Efficacy
T2 construct: expressed in transfected cells; host or cells: CHO (M4-CHO)
T2 sequence (P08173 1-479): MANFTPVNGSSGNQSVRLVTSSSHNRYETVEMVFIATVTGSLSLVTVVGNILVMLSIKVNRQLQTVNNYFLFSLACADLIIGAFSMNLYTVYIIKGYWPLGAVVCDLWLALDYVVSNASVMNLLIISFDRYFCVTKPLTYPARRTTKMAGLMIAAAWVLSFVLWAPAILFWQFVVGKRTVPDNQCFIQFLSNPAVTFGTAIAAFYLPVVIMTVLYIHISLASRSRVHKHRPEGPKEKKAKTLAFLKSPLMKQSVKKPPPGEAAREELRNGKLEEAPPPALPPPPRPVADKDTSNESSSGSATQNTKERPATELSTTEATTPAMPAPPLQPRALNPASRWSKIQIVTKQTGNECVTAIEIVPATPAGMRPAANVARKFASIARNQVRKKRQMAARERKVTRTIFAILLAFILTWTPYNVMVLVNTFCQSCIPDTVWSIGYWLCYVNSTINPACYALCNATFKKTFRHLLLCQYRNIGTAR
In short: as §1

Compound	M1 Activity (M1 muscarinic receptor)	Emax (M1 muscarinic receptor) [%]	M4 Activity (M4 muscarinic receptor)	Emax (M4 muscarinic receptor) [%]	M1 Efficacy (M1 muscarinic receptor)	M4 Efficacy (M4 muscarinic receptor)
CN(C)C(=O)N1CC2(CCN(C3CCN(C(=O)O[C@@H]4CCOC4)CC3)CC2)c2cc(F)ccc21 [compound 209]	xx (activity was measured to be between 0.1 μM and 1.0 μM)	> 85	x (activity was measured to be greater than 1.0 μM)	< 65		
CC(=O)N1CC2(CCN(C3CCCCCC3)CC2)c2cc(F)ccc21 [compound 210]	xx (activity was measured to be between 0.1 μM and 1.0 μM)	65 to 85	x (activity was measured to be greater than 1.0 μM)	< 65		
Cc1ccc2c(c1)C1(CCN(C3CC4CCC3C4)CC1)CN2C(=O)c1cc(C)n(C)n1 (stereo not drawn) [compound 211]	x (activity was measured to be greater than 1.0 μM)	65 to 85	x (activity was measured to be greater than 1.0 μM)	< 65		
O=C(O[C@H]1CCOC1)N1C2CCC1CC(N1CCC3(CC1)COc1ccc(F)cc13)C2 (stereo partly drawn) [compound 212]	x (activity was measured to be greater than 1.0 μM)	< 65	x (activity was measured to be greater than 1.0 μM)	< 65		
CC(=O)NC1CC2(CCN(C[C@H]3C[C@H]4C=C[C@H]3C4)CC2)c2ccccc21 (stereo partly drawn) [compound 213]	xx (activity was measured to be between 0.1 μM and 1.0 μM)	65 to 85	x (activity was measured to be greater than 1.0 μM)	< 65		
CCOC(=O)N1C2CCC1CC(N1CCC3(CC1)CN(C(=O)C1CC1)c1ccc(F)cc13)C2 (stereo not drawn) [compound 214]	x (activity was measured to be greater than 1.0 μM)	< 65	x (activity was measured to be greater than 1.0 μM)	< 65		
COCCOC(=O)N1C2CCC1CC(N1CCC3(CC1)CN(C(=O)O[C@@H]1CCOC1)c1ccc(F)cc13)C2 (stereo partly drawn) [compound 216]	xxx (activity was measured to be less than 0.1 μM)		x (activity was measured to be greater than 1.0 μM)		xxx (efficacy was calculated to be greater than 85%)	x (efficacy was calculated to be less than 65%)
O=C(OC1CCC1)N1C2CCC1CC(N1CCC3(CC1)C(=O)Nc1ccccc13)C2 (stereo not drawn) [compound 217]	xx (activity was measured to be between 0.1 μM and 1.0 μM)	< 65	x (activity was measured to be greater than 1.0 μM)	< 65		
CCNC(=O)N1C2CCC1CC(N1CCC3(CC1)COc1ccc(F)cc13)C2 (stereo not drawn) [compound 219]	x (activity was measured to be greater than 1.0 μM)	65 to 85	x (activity was measured to be greater than 1.0 μM)	< 65		
CCCCOC(=O)N1CC2(CCN(C3CCN(C(=O)OCC)CC3)CC2)c2cc(F)ccc21 [compound 220]	x (activity was measured to be greater than 1.0 μM)	65 to 85	x (activity was measured to be greater than 1.0 μM)	< 65		
CCOC(=O)N1CCC(N2CCC3(CC2)CN(C(C)=O)c2ccc(-c4ccc(C(C)=O)cc4)cc23)CC1 [compound 221]	xx (activity was measured to be between 0.1 μM and 1.0 μM)	65 to 85	x (activity was measured to be greater than 1.0 μM)	< 65		
CCOC(=O)N1C2CCC1CC(N1CCC3(CC1)CN(C(=O)c1ccc(F)cc1)c1ccc(F)cc13)C2 (stereo not drawn) [compound 222]	x (activity was measured to be greater than 1.0 μM)	< 65	x (activity was measured to be greater than 1.0 μM)	< 65		
CCOC(=O)N1CCC(N2CCC3(CC2)CN(C(=O)N(CC)CC)c2ccc(F)cc23)CC1 [compound 223]	x (activity was measured to be greater than 1.0 μM)	< 65	x (activity was measured to be greater than 1.0 μM)	< 65		
Clc1ccc2c(c1)C1(CCN(C3CC4CCC3C4)CC1)CN2 (stereo not drawn) [compound 224]	x (activity was measured to be greater than 1.0 μM)	65 to 85	x (activity was measured to be greater than 1.0 μM)	< 65		
CCOC(=O)N1CCC(N2CCC3(CC2)CN(C(C)=O)c2ccc(OC(F)(F)F)cc23)CC1 [compound 225]	x (activity was measured to be greater than 1.0 μM)	< 65	x (activity was measured to be greater than 1.0 μM)	< 65		
CC(=O)N1CC2(CCN(C3CCC(C(C)C)CC3)CC2)c2cc(F)ccc21 (stereo not drawn) [compound 226]	x (activity was measured to be greater than 1.0 μM)	< 65	x (activity was measured to be greater than 1.0 μM)	< 65		
CS(=O)(=O)N[C@@H]1CC2(CCN(C[C@H]3C[C@H]4CC[C@H]3C4)CC2)c2ccccc21 [compound 227]	xxx (activity was measured to be less than 0.1 μM)	> 85	xxx (activity was measured to be less than 0.1 μM)	> 85		
CCOC(=O)C1CCC(N2CCC3(CC2)CN(C(C)=O)c2ccc(F)cc23)CC1 (stereo not drawn) [compound 228]	x (activity was measured to be greater than 1.0 μM)	< 65	x (activity was measured to be greater than 1.0 μM)	< 65		
CCOC(=O)N1CCC(N2CCC3(CC2)CN(CCC(=O)CC)c2ccc(F)cc23)CC1 [compound 229]	xx (activity was measured to be between 0.1 μM and 1.0 μM)	< 65	xxx (activity was measured to be less than 0.1 μM)	> 85		
C#CCCOC(=O)N1C2CCC1CC(N1CCC3(CC1)CN(C(=O)N(C)C)c1ccc(F)cc13)C2 (stereo not drawn) [compound 230]	x (activity was measured to be greater than 1.0 μM)	< 65	xx (activity was measured to be between 0.1 μM and 1.0 μM)	> 85		
CCCNC(=O)N1C2CCC1CC(N1CCC3(CC1)COc1ccc(F)cc13)C2 (stereo not drawn) [compound 231]	x (activity was measured to be greater than 1.0 μM)	65 to 85	x (activity was measured to be greater than 1.0 μM)	> 85		
Cc1ccc2c(c1)C1(CCN(C3CC4CCC3C4)CC1)CN2S(C)(=O)=O (stereo not drawn) [compound 232]	xx (activity was measured to be between 0.1 μM and 1.0 μM)	< 65	xxx (activity was measured to be less than 0.1 μM)	> 85		
Cc1cc(C(=O)N2CC3(CCN(C4CC5CCC(C4)N5C(=O)O[C@@H]4CCOC4)CC3)c3cc(F)ccc32)nn1C (stereo partly drawn) [compound 233]	xxx (activity was measured to be less than 0.1 μM)	65 to 85	xxx (activity was measured to be less than 0.1 μM)	> 85		
CCOC(=O)N1CCC(N2CCC3(CC2)CN(C(C)=O)c2ccc(-c4cccnc4)cc23)CC1 [compound 234]	xxx (activity was measured to be less than 0.1 μM)	65 to 85	xxx (activity was measured to be less than 0.1 μM)	65 to 85		
COC(=O)N1CC2(CCN(C3CC4CCC(C3)N4C(=O)OC)CC2)c2cc(F)ccc21 (stereo not drawn) [compound 235]	xx (activity was measured to be between 0.1 μM and 1.0 μM)	65 to 85	x (activity was measured to be greater than 1.0 μM)	65 to 85		
CC(=O)N1CC2(CCN(C3CCC(C(F)(F)F)CC3)CC2)c2cc(F)ccc21 (stereo not drawn) [compound 236]	xxx (activity was measured to be less than 0.1 μM)	65 to 85	xx (activity was measured to be between 0.1 μM and 1.0 μM)	65 to 85		
CCOC(=O)N1CCC(CN2CCC3(CC2)CN(C(C)=O)c2ccc(OC)cc23)CC1 [compound 237]	xxx (activity was measured to be less than 0.1 μM)	< 65	xx (activity was measured to be between 0.1 μM and 1.0 μM)	< 65		
